Measurements from ChEMBL document CHEMBL1138729, “Aminoimidazo[1,2-a]pyridines as a new structural class of cyclin-dependent kinase inhibitors. Part 1: Design, synthesis, and biological evaluation” (Bioorg Med Chem Lett, 2004).

Columns and labels:
[1] = molecular target: Cyclin-dependent kinase 2 (Homo sapiens, UniProt P24941); test: Inhibitory activity against Cyclin-dependent kinase 2 (CDK2)
[2] = Inhibitory activity against Cyclin-dependent kinase 1 (CDK1)
[3] = molecular target: Cyclin-dependent kinase 4 (Homo sapiens, UniProt P11802); test: Inhibitory activity against Cyclin-dependent kinase 4 (CDK4)
Chain of Cyclin-dependent kinase 4 (P11802 whole entry): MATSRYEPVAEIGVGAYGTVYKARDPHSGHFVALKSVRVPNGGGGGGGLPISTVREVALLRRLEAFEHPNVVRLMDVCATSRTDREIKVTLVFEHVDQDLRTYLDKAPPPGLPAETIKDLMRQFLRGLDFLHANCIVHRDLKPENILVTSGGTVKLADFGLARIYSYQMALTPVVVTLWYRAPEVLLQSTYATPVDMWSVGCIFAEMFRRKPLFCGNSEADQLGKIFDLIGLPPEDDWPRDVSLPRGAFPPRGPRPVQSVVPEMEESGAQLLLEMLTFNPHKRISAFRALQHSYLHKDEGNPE

Row | Compound | IC50 [1] | IC50 [2] | IC50 [3]
1 | Nc1nc2ccc(C(=O)c3ccccc3OC(F)(F)F)cn2c1C(=O)c1c(F)cccc1F | 2170 nM |  | 
2 | COc1ccccc1C(=O)c1ccc2nc(N)c(C(=O)c3c(F)cccc3F)n2c1 | 603 nM |  | 
3 | Nc1nc2ccc(C(=O)c3ccccc3)cn2c1C(=O)c1c(F)cccc1F | 1930 nM |  | 
4 | Cc1ccccc1C(=O)c1ccc2nc(N)c(C(=O)c3c(F)cccc3F)n2c1 | 1290 nM |  | 
5 | Nc1nc2ccc(C(=O)c3ccccc3Cl)cn2c1C(=O)c1c(F)cccc1F | 428 nM |  | 
6 | Nc1nc2ccc(C(=O)c3ccccc3C(F)(F)F)cn2c1C(=O)c1c(F)cccc1F | 1070 nM |  | 
7 | Nc1nc2ccc(C(=O)c3c(F)cccc3F)cn2c1C(=O)c1cccs1 | 547 nM |  | 
8 | COc1cccc(OC)c1C(=S)c1c(N)nc2ccc(C(=O)c3c(F)cccc3F)cn12 | 462 nM |  | 
9 | Nc1nc2ccc(C(=O)c3c(F)cccc3F)cn2c1C(=O)c1ccc(Cl)cc1 | 1710 nM |  | 
10 | Nc1nc2ccc(/C(=C/c3nn[nH]n3)c3c(F)cccc3F)cn2c1C(=O)c1c(F)cccc1F | 1690 nM | 96 nM | 1700 nM
11 | CN(C)CCOc1cc(F)c(C(=O)c2c(N)nc3ccc(C(=O)c4c(Cl)cccc4Cl)cn23)c(F)c1 | 984 nM |  | 
12 | N#C/C=C(\c1ccc2nc(N)c(C(=O)c3c(F)cccc3F)n2c1)c1c(F)cccc1F | 896 nM |  | 
13 | Nc1nc2ccc(C(=O)c3c(F)cccc3F)cn2c1C(=S)c1ccccc1 | 214 nM | 165 nM | 1890 nM
14 | CN1CCN(CCOc2cc(F)c(C(=O)c3c(N)nc4ccc(C(=O)c5c(Cl)cccc5Cl)cn34)c(F)c2)CC1 | 812 nM |  | 
15 | Nc1nc2ccc(C(=O)c3c(F)cccc3F)cn2c1C(=O)c1ccncc1 | 2540 nM |  | 
16 | Nc1nc2ccc(C(=O)c3c(F)cccc3F)cn2c1C(=O)c1ccccc1 |  |  | 5050 nM

Other lines, results leading:

Row | IC50 [1] | IC50 [2] | IC50 [3] | Compound
17 | 29 nM | 143 nM | 464 nM | COc1cc(F)c(C(=S)c2c(N)nc3ccc(C(=O)c4c(F)cccc4F)cn23)c(F)c1
18 | 33 nM | 104 nM | 810 nM | Nc1nc2ccc(C(=O)c3c(F)cccc3Cl)cn2c1C(=O)c1c(F)cccc1F
19 | 160 nM | 53 nM | 1550 nM | N#C/C=C(/c1ccc2nc(N)c(C(=O)c3c(F)cccc3F)n2c1)c1c(F)cccc1F
20 | 95 nM | 328 nM | 2590 nM | Nc1nc2ccc(C(=O)c3c(Cl)cccc3Cl)cn2c1C(=O)c1c(F)cc(C(=O)O)cc1F
21 | 121 nM | 209 nM | 359 nM | Nc1nc2ccc(C(=O)c3c(F)cccc3F)cn2c1C(=O)c1c(Cl)cccc1Cl
22 | 46 nM | 154 nM | 1140 nM | NC(=O)c1cc(F)c(C(=O)c2c(N)nc3ccc(C(=O)c4c(Cl)cccc4Cl)cn23)c(F)c1
23 | 68 nM | 475 nM | 1970 nM | COc1ccccc1C(=O)c1c(N)nc2ccc(C(=O)c3c(F)cccc3F)cn12
24 | 53 nM |  |  | Nc1nc2ccc(C(=O)c3c(Cl)cccc3Cl)cn2c1C(=O)c1c(F)cccc1F
25 | 102 nM | 239 nM | 827 nM | Nc1nc2ccc(C(=O)c3c(F)cccc3F)cn2c1C(=O)c1c(F)cccc1Cl
26 | 63 nM | 93 nM | 1030 nM | C=C(c1ccc2nc(N)c(C(=O)c3c(F)cccc3F)n2c1)c1c(F)cccc1F
27 | 26 nM | 105 nM | 786 nM | Nc1nc2ccc(C(=O)c3c(F)cccc3F)cn2c1C(=S)c1c(F)cccc1F
28 | 122 nM | 57 nM | 1080 nM | Nc1nc2ccc(C(=O)c3c(F)cccc3F)cn2c1C(=O)c1c(F)cccc1F
29 | 52 nM |  |  | Nc1nc2ccc(C(=O)c3c(Cl)cccc3Cl)cn2c1C(=O)c1c(F)cc(O)cc1F
30 | 91 nM | 132 nM | 838 nM | COc1cc(F)c(C(=O)c2c(N)nc3ccc(C(=O)c4c(F)cccc4F)cn23)c(F)c1
